From the NIST ThermoML archive (doi:10.1016/j.jct.2008.10.007)
Numbers after ± are expanded uncertainties.

Experiments:
[1] = xn = mol fraction of the nth substance listed; details: 298.15 K, 101 kPa, Liquid, Vibrating tube method
[2] = excess molar enthalpy (molar enthalpy of mixing); xn = mol fraction of the nth substance listed; details: 298.15 K, 101 kPa, Liquid, Calvet calorimetry

ClCCCCCl [1,4-dichlorobutane] + CCCOC(=O)CC
Details	excess molar enthalpy [kcal/mol]	mass density [kg/m3]
[1], x2 = 0.0527	–	1118.03 ± 6.2
[1], x2 = 0.1038	–	1102.83 ± 5.5
[1], x2 = 0.1547	–	1087.98 ± 4.9
[1], x2 = 0.2085	–	1072.56 ± 4.3
[1], x2 = 0.2627	–	1057.37 ± 3.7
[1], x2 = 0.3186	–	1041.98 ± 3.2
[1], x2 = 0.3736	–	1027.16 ± 2.7
[1], x2 = 0.49	–	996.65 ± 1.9
[1], x2 = 0.5485	–	981.77 ± 1.6
[1], x2 = 0.612	–	965.97 ± 1.3
[1], x2 = 0.6735	–	950.93 ± 1
[1], x2 = 0.7351	–	936.2 ± 0.81
[1], x2 = 0.8004	–	920.88 ± 0.61
[1], x2 = 0.866	–	905.76 ± 0.46
[1], x2 = 0.9333	–	890.53 ± 0.33
[2], x2 = 0.0573	-0.00621 ± 0.000239	–
[2], x2 = 0.133	-0.0151 ± 0.000478	–
[2], x2 = 0.2168	-0.0308 ± 0.000717	–
[2], x2 = 0.3006	-0.0461 ± 0.000956	–
[2], x2 = 0.381	-0.0598 ± 0.00143	–
[2], x2 = 0.4539	-0.071 ± 0.00167	–
[2], x2 = 0.5117	-0.0743 ± 0.00167	–
[2], x2 = 0.5559	-0.0743 ± 0.00167	–
[2], x2 = 0.6419	-0.071 ± 0.00167	–
[2], x2 = 0.7366	-0.0621 ± 0.00143	–
[2], x2 = 0.8338	-0.0447 ± 0.000956	–
[2], x2 = 0.9261	-0.0227 ± 0.000478	–

CCCOC(C)=O [propyl ethanoate] + ClCCCCCCCl
Details	mass density [kg/m3]
[1], x1 = 1	882.08 ± 0.23

ClCCCCCCCl [1,6-dichlorohexane] + CCCOC(=O)CC
Details	excess molar enthalpy [kcal/mol]	mass density [kg/m3]
[1], x2 = 0.0665	–	1052.5 ± 5.3
[1], x2 = 0.1321	–	1041.17 ± 4.7
[1], x2 = 0.1948	–	1030.19 ± 4
[1], x2 = 0.2568	–	1019.24 ± 3.5
[1], x2 = 0.3171	–	1008.42 ± 3
[1], x2 = 0.3785	–	997.31 ± 2.5
[1], x2 = 0.556	–	964.22 ± 1.5
[1], x2 = 0.7294	–	930.71 ± 0.82
[1], x2 = 0.7852	–	919.58 ± 0.65
[1], x2 = 0.8399	–	908.58 ± 0.51
[1], x2 = 0.8955	–	897.26 ± 0.39
[1], x2 = 0.949	–	886.33 ± 0.3
[2], x2 = 0.0728	-0.00598 ± 0.000239	–
[2], x2 = 0.1664	-0.0131 ± 0.000478	–
[2], x2 = 0.2656	-0.0232 ± 0.000478	–
[2], x2 = 0.3635	-0.0354 ± 0.000956	–
[2], x2 = 0.4374	-0.0418 ± 0.000956	–
[2], x2 = 0.4861	-0.0459 ± 0.000956	–
[2], x2 = 0.5174	-0.0483 ± 0.0012	–
[2], x2 = 0.5675	-0.0495 ± 0.0012	–
[2], x2 = 0.6298	-0.0483 ± 0.0012	–
[2], x2 = 0.7081	-0.043 ± 0.000956	–
[2], x2 = 0.7895	-0.0373 ± 0.000956	–
[2], x2 = 0.8738	-0.0237 ± 0.000717	–
[2], x2 = 0.9478	-0.011 ± 0.000478	–

ClCCCCCCCl [1,6-dichlorohexane] + CCCOC(C)=O
Details	excess molar enthalpy [kcal/mol]	mass density [kg/m3]
[1], x2 = 0.0708	–	1053.44 ± 5.3
[1], x2 = 0.1405	–	1042.95 ± 4.6
[1], x2 = 0.208	–	1032.5 ± 4
[1], x2 = 0.2725	–	1022.22 ± 3.4
[1], x2 = 0.3392	–	1011.28 ± 2.9
[1], x2 = 0.4656	–	989.61 ± 2
[1], x2 = 0.584	–	968.14 ± 1.4
[1], x2 = 0.6947	–	946.95 ± 0.95
[1], x2 = 0.8017	–	925.34 ± 0.61
[1], x2 = 0.8514	–	914.87 ± 0.49
[1], x2 = 0.902	–	903.96 ± 0.39
[1], x2 = 0.9502	–	893.34 ± 0.3
[2], x2 = 0.0861	0.00598 ± 0.000239	–
[2], x2 = 0.1716	0.00478 ± 0.000239	–
[2], x2 = 0.2676	-0.00311 ± 0.000239	–
[2], x2 = 0.3149	-0.00765 ± 0.000239	–
[2], x2 = 0.3896	-0.0146 ± 0.000478	–
[2], x2 = 0.4563	-0.0196 ± 0.000478	–
[2], x2 = 0.5169	-0.0239 ± 0.000717	–
[2], x2 = 0.5684	-0.0253 ± 0.000717	–
[2], x2 = 0.5761	-0.0246 ± 0.000717	–
[2], x2 = 0.6268	-0.0241 ± 0.000717	–
[2], x2 = 0.6841	-0.022 ± 0.000478	–
[2], x2 = 0.7455	-0.0194 ± 0.000478	–
[2], x2 = 0.8101	-0.0153 ± 0.000478	–
[2], x2 = 0.8793	-0.0105 ± 0.000239	–
[2], x2 = 0.9463	-0.00574 ± 0.000239	–

CCCOC(=O)CC [propyl propanoate] + ClCCCCCCl
Details	mass density [kg/m3]
[1], x1 = 1	875.61 ± 0.23

CCCOC(C)=O [propyl ethanoate] + ClCCCl
Details	mass density [kg/m3]
[1], x1 = 1	882.08 ± 0.23

CCCOC(C)=O [propyl ethanoate] + ClCCCCl
Details	mass density [kg/m3]
[1], x1 = 1	882.08 ± 0.23

CCCOC(=O)CCC [propyl butanoate] + ClCCCCl
Details	excess molar enthalpy [kcal/mol]	mass density [kg/m3]
[1], x1 = 0.0366	–	1161.49 ± 6.9
[1], x1 = 0.0766	–	1143.1 ± 6.2
[1], x1 = 0.1186	–	1124.61 ± 5.6
[1], x1 = 0.1603	–	1107.03 ± 5
[1], x1 = 0.2067	–	1088.41 ± 4.4
[1], x1 = 0.2552	–	1069.83 ± 3.9
[1], x1 = 0.3066	–	1051.21 ± 3.3
[1], x1 = 0.3595	–	1032.94 ± 2.9
[1], x1 = 0.4152	–	1014.72 ± 2.4
[1], x1 = 0.5357	–	978.32 ± 1.6
[1], x1 = 0.5999	–	960.48 ± 1.3
[1], x1 = 0.6691	–	942.33 ± 1
[1], x1 = 0.7439	–	923.8 ± 0.77
[1], x1 = 0.8228	–	905.44 ± 0.55
[1], x1 = 0.9064	–	887.12 ± 0.37
[1], x1 = 1	–	867.9 ± 0.23
[2], x1 = 0.0386	-0.00478 ± 0.000239	–
[2], x1 = 0.0938	-0.0127 ± 0.000478	–
[2], x1 = 0.159	-0.0229 ± 0.000478	–
[2], x1 = 0.2273	-0.0375 ± 0.000956	–
[2], x1 = 0.2973	-0.0507 ± 0.0012	–
[2], x1 = 0.3649	-0.0626 ± 0.00143	–
[2], x1 = 0.4253	-0.0712 ± 0.00167	–
[2], x1 = 0.5121	-0.081 ± 0.00167	–
[2], x1 = 0.5732	-0.0798 ± 0.00167	–
[2], x1 = 0.6582	-0.0753 ± 0.00167	–
[2], x1 = 0.748	-0.0652 ± 0.00143	–
[2], x1 = 0.8421	-0.0464 ± 0.000956	–
[2], x1 = 0.9299	-0.0234 ± 0.000717	–

ClCCCCCCl [1,5-dichloropentane] + CCCOC(C)=O
Details	excess molar enthalpy [kcal/mol]	mass density [kg/m3]
[1], x2 = 0.0592	–	1083.72 ± 5.8
[1], x2 = 0.126	–	1070.79 ± 5
[1], x2 = 0.1854	–	1059.08 ± 4.3
[1], x2 = 0.2502	–	1046.15 ± 3.7
[1], x2 = 0.3122	–	1033.6 ± 3.2
[1], x2 = 0.3736	–	1021.02 ± 2.7
[1], x2 = 0.495	–	995.63 ± 1.9
[1], x2 = 0.5537	–	983.11 ± 1.6
[1], x2 = 0.6672	–	958.42 ± 1.1
[1], x2 = 0.7269	–	945.17 ± 0.84
[1], x2 = 0.7802	–	933.16 ± 0.68
[1], x2 = 0.8365	–	920.34 ± 0.53
[1], x2 = 0.889	–	908.23 ± 0.41
[1], x2 = 0.9471	–	894.67 ± 0.31
[2], x2 = 0.0656	-0.00382 ± 0.000239	–
[2], x2 = 0.1426	-0.00478 ± 0.000239	–
[2], x2 = 0.2338	-0.0134 ± 0.000478	–
[2], x2 = 0.3247	-0.0239 ± 0.000717	–
[2], x2 = 0.4088	-0.0337 ± 0.000717	–
[2], x2 = 0.4844	-0.0392 ± 0.000956	–
[2], x2 = 0.5426	-0.0409 ± 0.000956	–
[2], x2 = 0.5428	-0.0411 ± 0.000956	–
[2], x2 = 0.6183	-0.0409 ± 0.000956	–
[2], x2 = 0.6974	-0.0366 ± 0.000956	–
[2], x2 = 0.7844	-0.0282 ± 0.000717	–
[2], x2 = 0.8682	-0.0184 ± 0.000478	–
[2], x2 = 0.9448	-0.00813 ± 0.000239	–

CCCOC=O [propyl methanoate] + ClCCCCCl
Details	excess molar enthalpy [kcal/mol]	mass density [kg/m3]
[1], x1 = 0.0699	–	1119.28 ± 6.4
[1], x1 = 0.1344	–	1105.73 ± 5.9
[1], x1 = 0.2012	–	1091.45 ± 5.4
[1], x1 = 0.3873	–	1050.4 ± 4.2
[1], x1 = 0.4476	–	1036.71 ± 3.9
[1], x1 = 0.5676	–	1008.76 ± 3.2
[1], x1 = 0.6231	–	995.55 ± 3
[1], x1 = 0.6814	–	981.44 ± 2.7
[1], x1 = 0.7384	–	967.39 ± 2.5
[1], x1 = 0.7933	–	953.67 ± 2.2
[1], x1 = 0.8452	–	940.47 ± 2.1
[1], x1 = 0.8982	–	926.78 ± 1.9
[1], x1 = 0.9521	–	912.65 ± 1.7
[1], x1 = 1	–	899.81 ± 1.6
[2], x1 = 0.0692	0.00932 ± 0.000239	–
[2], x1 = 0.1586	0.0155 ± 0.000478	–
[2], x1 = 0.2416	0.0191 ± 0.000478	–
[2], x1 = 0.3365	0.0184 ± 0.000478	–
[2], x1 = 0.4234	0.0148 ± 0.000478	–
[2], x1 = 0.5005	0.01 ± 0.000239	–
[2], x1 = 0.5667	0.00406 ± 0.000239	–
[2], x1 = 0.6288	-0.00382 ± 0.000239	–
[2], x1 = 0.6884	-0.00837 ± 0.000239	–
[2], x1 = 0.7528	-0.00908 ± 0.000239	–
[2], x1 = 0.817	-0.00908 ± 0.000239	–
[2], x1 = 0.8815	-0.00669 ± 0.000239	–
[2], x1 = 0.9414	-0.00311 ± 0.000239	–

CCCOC=O [propyl methanoate] + ClCCCCCCl
Details	mass density [kg/m3]
[1], x1 = 1	899.81 ± 1.6
